Experimental data: patent US20260130933A1, “PHARMACEUTICAL COMPOSITION FOR PREVENTION OR TREATMENT OF NEPHROPATHY AND/OR DIABETES MELLITUS, COMPRISING ENAVOGLIFLOZIN” (DAEWOONG PHARMACEUTICAL CO., LTD., priority 2022, published 2026)

Assay: Example 3: phase 3 trial, enavogliflozin 0.3 mg vs dapagliflozin 10 mg once a day for 24 weeks added to metformin and gemigliptin in patients with type 2 diabetes (same endpoints, rescue drug)
Format: in vivo, human
Details: week 18, per-protocol set
Procedure: 1) when Metformin (≥1,000 mg/Day) was Administered at a Constant Dose for at Least 8 Weeks Prior to Pre-Visit (Pre-Screening) • Metformin (≥1,000 mg/day) and gemigliptin (50 mg/day) were co-administered during the 8-week stabilization period. […] 4) when Metformin (≥1,000 mg/Day) and Gemigliptin (50 mg/Day) were Co-Administered at Constant Doses for at Least 8 Weeks Prior to Pre-Visit (Prescreening) • Without a separate stabilization period, Pre-visit (pre-screening) was Visit 1 (screening).
Subjects who met the inclusion/exclusion criteria continued to receive metformin and gemigliptin while receiving a placebo of the clinical trial drug in a single-blind (subject-blinded) state for a 2-week run-in period.
Here, the randomized subjects were stratified according to the administration therapy (co-administration with two or less agents (one or two agents) or three or more agents) of a conventional hypoglycemic agent (before washout of another hypoglycemic agent) within 24 weeks prior to obtaining written informed consent and by an HbA1c value (<8% or ≥8%) at Visit 1 (screening) measured in the central laboratory.
The randomized subjects were administered two tablets of the clinical trial drug corresponding to each administration group once a day, and then visited the institution at weeks 6, 12, 18, and 24 during the 24-week administration period to conduct efficacy and safety assessments. In addition, during the clinical trial period, they were instructed to exercise regularly and control their diet without changing their daily life patterns.
• 1) Change in HbA1c at week 24 after administration of clinical trial drug compared to Visit 2 (randomization)
• 1) Change in HbA1c at each time point of weeks 6, 12, and 18 after administration of clinical trial drug compared to Visit 2 (randomization) • 2) Change in FPG at each time point of weeks 6, 12, 18, and 24 after administration of clinical trial drug compared to Visit 2 (randomization) • 3) Proportion of subjects achieving HbA1c<7% at each time point of weeks 6, 12, 18, and 24 after administration of clinical trial drug • 4) Proportion of subjects achieving HbA1c<6.5% at each time point of weeks 6, 12, 18, and 24 after administration of clinical trial drug • 5) Proportion of subjects achieving therapeutic response (HbA1c change (HbA1c at Visit 2—HbA1c at each evaluation time point)>0.5% or HbA1c<7% at each evaluation time point compared to Visit 2 (randomization)) at each time point of weeks 6, 12, 18, and 24 after administration of clinical trial drug • 6) Proportion of subjects achieving therapeutic response (HbA1c change (HbA1c at Visit 2—HbA1c at each evaluation time point)>0.7% or HbA1c<7% at each evaluation time point compared to Visit 2 (randomization)) at each time point of weeks 6, 12, 18, and 24 after administration of clinical trial drug • 7) Proportion of subjects achieving therapeutic response (HbA1c change (HbA1c at Visit 2—HbA1c at each evaluation time point)>1% or HbA1c<7% at each evaluation time point compared to Visit 2 (randomization)) at each time point of weeks 6, 12, 18, and 24 after administration of clinical trial drug

[1] = enavogliflozin 0.3 mg, dapagliflozin 10 mg

## CCOc1ccc(Cc2cc([C@@H]3O[C@H](CO)[C@@H](O)[C@H](O)[C@H]3O)ccc2Cl)cc1 [Dapagliflozin, reference compound]
  Adiponectin, Mean: 6.65 µg/mL
  Adiponectin, Median: 6.21 µg/mL
  Change from baseline in HOMA-IR, ANCOVA LS mean: −1.01
  Change from baseline in HOMA-IR, Mean: −1.00
  Change from baseline in HOMA-IR, Median: −0.75
  Change from baseline in HOMA-β, ANCOVA LS mean: 4.49
  Change from baseline in HOMA-β, Mean: 5.32
  Change from baseline in HOMA-β, Median: 2.20
  Change from baseline in UACR, ANCOVA LS mean: -8.90 g/kg
  Change from baseline in UACR, Mean: -8.84 g/kg
  Change from baseline in UACR, Median: 0.20 g/kg
  Change from baseline in UGCR, ANCOVA LS mean: 45.40 mg/mg
  Change from baseline in UGCR, Mean: 43.29 mg/mg
  Change from baseline in UGCR, Median: 41.28 mg/mg
  Change from baseline in adiponectin, ANCOVA LS mean: 0.36 µg/mL
  Change from baseline in adiponectin, Mean: 0.30 µg/mL
  Change from baseline in adiponectin, Median: 0.36 µg/mL
  Change from baseline in leptin, ANCOVA LS mean: -1.06 ng/mL
  Change from baseline in leptin, Mean: -1.36 ng/mL
  Change from baseline in leptin, Median: -0.75 ng/mL
  HOMA-IR (insulin resistance), Mean: 1.85
  HOMA-IR (insulin resistance), Median: 1.53
  HOMA-β (beta-cell function), Mean: 45.79
  HOMA-β (beta-cell function), Median: 36.80
  Leptin, Mean: 9.52 ng/mL
  Leptin, Median: 7.80 ng/mL
  UACR, Mean: 25.86 g/kg
  UACR, Median: 10.20 g/kg
  UGCR, Mean: 44.82 mg/mg
  UGCR, Median: 42.32 mg/mg
[1]
  Body weight, Mean: 64.37 kg
  Change from baseline in FPG, ANCOVA LS mean: -23.55 mg/dL
  Change from baseline in FPG, Mean: -24.80 mg/dL
  Change from baseline in FPG, Median: -19.00 mg/dL
  Change from baseline in HbA1c, ANCOVA LS mean: −0.75 % p
  Change from baseline in HbA1c, Mean: −0.79 % p
  Change from baseline in HbA1c, Median: −0.72 % p
  Change from baseline in body weight, ANCOVA LS mean: -3.01 kg
  Change from baseline in body weight, Mean: -2.84 kg
  Change from baseline in body weight, Median: -2.70 kg
  Change from baseline in fasting C-peptide, ANCOVA LS mean: -0.06 ng/mL
  Change from baseline in fasting C-peptide, Mean: -0.06 ng/mL
  Change from baseline in fasting C-peptide, Median: -0.07 ng/mL
  FPG, Mean: 115.72 mg/dL
  FPG, Median: 114.00 mg/dL
  Fasting C-peptide, Mean: 0.63 ng/mL
  Fasting C-peptide, Median: 0.60 ng/mL
  HbA1c, Mean: 7.04%
  HbA1c, Median: 6.97%
  Subjects achieving HbA1c target of <6.5%, (%): 12.20%
  Subjects achieving HbA1c target of <7%, %: 56.10%
